Consider 25 compounds from patent US20250257051A1, “SUBSTITUTED PYRIMIDINE COMPOUNDS AS TYK2 INHIBITORS” (1910 Genetics Inc., priority 2022, published 2025).

Several values for one entry are separate records, joined by “and”; a condition that tells them apart may be missing. Equal entries are not always repeated.

human TYK2 (JH2domain-pseudokinase), sequence (P29597 556-888): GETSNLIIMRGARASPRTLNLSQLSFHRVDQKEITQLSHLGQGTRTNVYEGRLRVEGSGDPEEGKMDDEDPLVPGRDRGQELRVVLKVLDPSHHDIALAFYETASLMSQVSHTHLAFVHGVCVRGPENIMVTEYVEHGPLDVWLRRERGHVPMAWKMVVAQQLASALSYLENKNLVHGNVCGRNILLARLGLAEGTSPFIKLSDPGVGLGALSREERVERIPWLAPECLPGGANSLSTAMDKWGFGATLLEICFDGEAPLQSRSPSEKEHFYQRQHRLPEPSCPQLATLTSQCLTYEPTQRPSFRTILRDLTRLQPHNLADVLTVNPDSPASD

The target in the first test is human TYK2 (JH2domain-pseudokinase) (Homo sapiens (Human), UniProt P29597). Put plainly: TYK2 JH2 Domain Binding Assay (KINOMEscan competition binding). The conditions noted are these: KINOMEscan; 11-point 3-fold dilution, top concentration 30,000 nM; Kd measurements in duplicate; read-out: TYK JH2 (Kd). How it is done:
Binding constants for compounds disclosed herein may be determined by the KINOMEscan® assay developed by DiscoveRx. KINOMEscan® is based on a competition binding assay that quantitatively measures the ability of a compound to compete with an immobilized, active-site directed ligand. The assay is performed by combining three components: DNA-tagged kinase; immobilized ligand; and a test compound. The ability of the test compound to compete with the immobilized ligand is measure via quantitative PCR of the DNA tag.
Binding constants for compounds disclosed herein against the JH2 domain are determined by the following protocol for a KINOMEscan® assay (DiscoveRx). A fusion protein of a partial length construct of human TYK2 (JH2domain-pseudokinase) (amino acids G556 to D888 based on reference sequence NP 003322.3) and the DNA binding domain of NFkB is expressed in transiently transfected HEK293 cells. From these HEK 293 cells, extracts are prepared in M-PER extraction buffer (Pierce) in the presence of Protease Inhibitor Cocktail Complete (Roche) and Phosphatase Inhibitor Cocktail Set II (Merck) per manufacturers' instructions. The TYK2 (JH2domain-pseudokinase) fusion protein is labeled with a chimeric double-stranded DNA tag containing the NFkB binding site (5′-GGGAATTCCC-3′) fused to an amplicon for qPCR readout, which is added directly to the expression extract (the final concentration of DNA-tag in the binding reaction is 0.1 nM).
Streptavidin-coated magnetic beads (Dynal M280) are treated with a biotinylated small molecule ligand for 30 minutes at room temperature to generate affinity resins for the binding assays. The liganded beads are blocked with excess biotin and washed with blocking buffer (SeaBlock (Pierce), 1% BSA, 0.05% Tween 20, 1 mM DTT) to remove unbound ligand and to reduce nonspecific binding.
Extracts are used directly in binding assays without any enzyme purification steps at a >10,000-fold overall stock dilution (final DNA tagged enzyme concentration<0.1 nM). Extracts are loaded with DNA-tag and diluted into the binding reaction in a two-step process. First extracts are diluted 1:100 in 1× binding buffer (PBS/0.05% Tween 20/10 mM DTT/0.1% BSA/[…] sonicated salmon sperm DNA) containing 10 nM DNA-tag. This dilution is allowed to equilibrate at room temperature for 15 minutes and then subsequently diluted 1:100 in 1× binding buffer. Test compounds are prepared as 111× stocks in 100% DMSO. Kds are determined using an 11-point 3-fold compound dilution series with three DMSO control points. All compounds for Kd measurements are distributed by acoustic transfer (non-contact dispensing) in 100% DMSO. The compounds are then diluted directly into the assays such that the final concentration of DMSO is 0.9%. All reactions performed in polypropylene 384-well plates. Each is a final volume of 0.02 mL. Assays are incubated with shaking for 1 hour at room temperature. Then the beads are pelleted and washed with wash buffer (lx PBS, 0.05% Tween 20) to remove displaced kinase and test compound. The washed beads are re-suspended in elution buffer (lx PBS, 0.05% Tween 20, 0.5 μM non-biotinylated affinity ligand) and incubated at room temperature with shaking for 30 minutes. The kinase concentration in the eluates is measured by qPCR. qPCR reactions are assembled by adding 2.5 μL of kinase eluate to 7.5 μL of qPCR master mix containing 0.15 μM amplicon primers and 0.15 μM amplicon probe. The qPCR protocol consists of a 10-minute hot start at 95° C., followed by 35 cycles of 95° C. for 15 seconds, 60° C. for 1 minute.
Test compounds are prepared as 111× stocks in 100% DMSO. Kds are determined using an 11-point 3-fold compound dilution series with three DMSO control points. All compounds for Kd measurements are distributed by acoustic transfer (non-contact dispensing) in 100% DMSO. The compounds are then diluted directly into the assays such that the final concentration of DMSO is 0.9%. […]
With `CC(=O)N1CCCN(c2ncc(C(N)=O)c(Nc3ccccc3S(C)(=O)=O)n2)CC1` [Compound 80, 2-(4-acetyl-1,4-diazepan-1-yl)-4-((2-(methylsulfonyl)phenyl)amino)pyrimidine-5-carboxamide], the Kd was 950 nM.
Turning to `CNC(=O)c1cnc(N2CC[C@@H](C(=O)NC)C2)nc1Nc1cccc(-c2ncc(F)cn2)c1OC` [Compound 5, (R)-4-((3-(5-fluoropyrimidin-2-yl)-2-methoxyphenyl)amino)-N-methyl-2-(3-(methylcarbamoyl)pyrrolidin-1-yl)pyrimidine-5-carboxamide], the dissociation constant Kd turned out to be 0.69 nM.
Still for that read-out and setting: to `CNC(=O)c1cnc(N2CCN(C(C)=O)CC2C)nc1Nc1ccc(C2CC2)nc1` (centres unmarked) [Compound 70, 2-(4-acetyl-2-methylpiperazin-1-yl)-4-((6-cyclopropylpyridin-3-yl)amino)-N-methylpyrimidine-5-carboxamide] belongs 4000 nM; to `CNC(=O)c1cnc(N2CCN(C(C)=O)CC2C)nc1Nc1ccccc1OC` (centres unmarked) [Compound 23, 2-(4-acetyl-2-methylpiperazin-1-yl)-4-((2-methoxyphenyl)amino)-N-methylpyrimidine-5-carboxamide], 1600 nM.
For the compound `CCOC(=O)C1CCN(c2ncc(C(=O)NC)c(Nc3ccc(C4CC4)nc3)n2)CC1` [Compound 20, Ethyl 1-(4-((6-cyclopropylpyridin-3-yl)amino)-5-(methylcarbamoyl)pyrimidin-2-yl)piperidine-4-carboxylate], the Kd was found to be 2500 nM.
Turning to `CNC(=O)c1cnc(N2CCC(C(=O)O)CC2)nc1Nc1ccc(C2CC2)nc1` [Compound 19, 1-(4-((6-cyclopropylpyridin-3-yl)amino)-5-(methylcarbamoyl)pyrimidin-2-yl)piperidine-4-carboxylic acid], the Kd is 8200 nM.
The same measure, in the same setting: to `CS(=O)(=O)c1ccccc1Nc1nc(N2CCC(C(=O)O)CC2)ncc1C(N)=O` [Compound 78, 1-(5-carbamoyl-4-((2-(methylsulfonyl)phenyl)amino)pyrimidin-2-yl)piperidine-4-carboxylic Acid] belongs 330 nM.
`CCOC(=O)C1CCN(c2ncc(C(N)=O)c(Nc3ccc(C4CC4)nc3)n2)CC1` [Compound 36, Ethyl 1-(5-carbamoyl-4-((6-cyclopropylpyridin-3-yl)amino)pyrimidin-2-yl)piperidine-4-carboxylate]: the Kd amounted to 660 nM.
The same measure, in the same setting: in the case of `CNC(=O)[C@H]1CCN(c2ncc(C(N)=O)c(Nc3ccc(C4CC4)nc3)n2)C1` [Compound 3, (S)-4-((6-cyclopropylpyridin-3-yl)amino)-2-(3-(methylcarbamoyl)pyrrolidin-1-yl)pyrimidine-5-carboxamide] it was 54 nM.
On the same count and under the same terms, to `CNC(=O)c1cnc(N2CC(C(=O)NC)C2)nc1Nc1ccc(C2CC2)nc1` [Compound 51, 4-((6-cyclopropylpyridin-3-yl)amino)-N-methyl-2-(3-(methylcarbamoyl)azetidin-1-yl)pyrimidine-5-carboxamide] belongs 1500 nM; to `COc1c(Nc2nc(N3CCC(C(=O)O)CC3)ncc2C(N)=O)cccc1-c1ncc(F)cn1` [Compound 38, 1-(5-carbamoyl-4-((3-(5-fluoropyrimidin-2-yl)-2-methoxyphenyl)amino)pyrimidin-2-yl)piperidine-4-carboxylic Acid], 7.8 nM.
In the case of `CNC(=O)[C@@H]1CCN(c2ncc(C(N)=O)c(Nc3ccc(C4CC4)nc3)n2)C1` [Compound 4, (R)-4-((6-cyclopropylpyridin-3-yl)amino)-2-(3-(methylcarbamoyl)pyrrolidin-1-yl)pyrimidine-5-carboxamide], the dissociation constant Kd is 38 nM.
As to `CCOC(=O)C1CCN(c2ncc(C(N)=O)c(Nc3cccc(-c4ncc(F)cn4)c3OC)n2)CC1` [Compound 39, Ethyl 1-(5-carbamoyl-4-((3-(5-fluoropyrimidin-2-yl)-2-methoxyphenyl)amino)pyrimidin-2-yl)piperidine-4-carboxylate], the dissociation constant (Kd) was determined as 0.82 nM.
In the case of `CNC(=O)c1cnc(N2CCC(C(=O)O)CC2)nc1Nc1ccccc1OC` [Compound 33, 1-(4-((2-methoxyphenyl)amino)-5-(methylcarbamoyl)pyrimidin-2-yl)piperidine-4-carboxylic Acid], the Kd was 710 nM.
The same measure, in the same setting: to `COc1ccccc1Nc1nc(N2CCN(C(=O)OC(C)(C)C)CC2C)ncc1C(N)=O` (centres unmarked) [Compound 43, Tert-Butyl 4-(5-carbamoyl-4-((2-methoxyphenyl)amino)pyrimidin-2-yl)-3-methylpiperazine-1-carboxylate] belongs 7500 nM.
Take `CC(=O)N1CCN(c2ncc(C(N)=O)c(Nc3ccccc3S(C)(=O)=O)n2)C(C)C1` (racemic) [Compound 62, 2-(4-acetyl-2-methylpiperazin-1-yl)-4-((2-(methylsulfonyl)phenyl)amino)pyrimidine-5-carboxamide]: the Kd was found to be 120 nM.
With `CNC(=O)c1cnc(N2CCCN(C(=O)OC(C)(C)C)CC2)nc1Nc1cccc(-c2ncc(F)cn2)c1OC` [Compound 72, Tert-Butyl 4-(4-((3-(5-fluoropyrimidin-2-yl)-2-methoxyphenyl)amino)-5-(methylcarbamoyl)pyrimidin-2-yl)-1,4-diazepane-1-carboxylate], the Kd stood at 4500 nM.
For the compound `CNC(=O)c1cnc(N2CCCN(C(C)=O)CC2)nc1Nc1ccc(C2CC2)nc1` [Compound 21, 2-(4-acetyl-1,4-diazepan-1-yl)-4-((6-cyclopropylpyridin-3-yl)amino)-N-methylpyrimidine-5-carboxamide], the equilibrium dissociation constant (Kd) was 14000 nM.
Same read-out and setting: in the case of `CCOC(=O)C1CCN(c2ncc(C(N)=O)c(Nc3ccccc3S(C)(=O)=O)n2)CC1` [Compound 16, Ethyl 1-(5-carbamoyl-4-((2-(methylsulfonyl)phenyl)amino)pyrimidin-2-yl)piperidine-4-carboxylate] it was 2.6 nM; in that of `CCOC(=O)C1CCN(c2ncc(C(=O)NC)c(Nc3ccccc3OC)n2)CC1` [Compound 34, Ethyl 1-(4-((2-methoxyphenyl)amino)-5-(methylcarbamoyl)pyrimidin-2-yl)piperidine-4-carboxylate], 760 nM.
On to `CNC(=O)c1cnc(N2CCN(C(=O)OC(C)(C)C)CC2C)nc1Nc1ccccc1OC` (centres unmarked) [Compound 32, Tert-Butyl 4-(4-((2-methoxyphenyl)amino)-5-(methylcarbamoyl)pyrimidin-2-yl)-3-methylpiperazine-1-carboxylate], for which the Kd came out at 17000 nM.
Regarding `CNC(=O)[C@H]1CCN(c2ncc(C(N)=O)c(Nc3cccc(-c4ncc(F)cn4)c3OC)n2)C1` [Compound 52, (S)-4-((3-(5-fluoropyrimidin-2-yl)-2-methoxyphenyl)amino)-2-(3-(methylcarbamoyl)pyrrolidin-1-yl)pyrimidine-5-carboxamide], the Kd is 1.6 nM.
Same read-out and setting: to `CNC(=O)c1cnc(N2CCN(C(=O)OC(C)(C)C)CC2C)nc1Nc1ccccc1S(C)(=O)=O` (centres unmarked) [Compound 18, Tert-Butyl 3-methyl-4-(5-(methylcarbamoyl)-4-((2-(methylsulfonyl)phenyl)amino)pyrimidin-2-yl)piperazine-1-carboxylate] belongs 440 nM; to `CNC(=O)c1cnc(N2CCN(C(=O)OC(C)(C)C)CC2C)nc1Nc1cccc(-c2ncc(F)cn2)c1OC` (centres unmarked) [Compound 26, Tert-Butyl 4-(4-((3-(5-fluoropyrimidin-2-yl)-2-methoxyphenyl)amino)-5-(methylcarbamoyl)pyrimidin-2-yl)-3-methylpiperazine-1-carboxylate], 190 nM.

The test is the same for the next values; noted with them: Table 4: pyrimidinyl compound of Formula I versus compounds with a different heteroaryl core; read-out: TYK JH2 (Kd).
For the compound `CNC(=O)c1nnc(N2CCC(C(=O)NC)C2)cc1Nc1ccc(C2CC2)nc1` (centres unmarked) [reference compound], the Kd was 31000 nM.

The same test, now with this note: footnote a: the two measurements averaged for Cmpd. No. 5; read-out: TYK JH2 (Kd, nM), individual measurements.
For `CNC(=O)c1cnc(N2CC[C@@H](C(=O)NC)C2)nc1Nc1cccc(-c2ncc(F)cn2)c1OC` [Compound 5, (R)-4-((3-(5-fluoropyrimidin-2-yl)-2-methoxyphenyl)amino)-N-methyl-2-(3-(methylcarbamoyl)pyrrolidin-1-yl)pyrimidine-5-carboxamide], the Kd is 0.45 nM and 0.93 nM.
